# pIC50: −log10 of the molar value. Like-named read-outs stand apart in the source and are kept apart here.
# What was measured:
# [1] = test system: vascular endothelial cells (HUVECs); assay: Proliferation of cytokine-stimulated vascular endothelial cells ([3H]-Thymidine, microscopy); format: cell-based
# Description: CDDO. PPARγ nuclear receptor is expressed in bone marrow endothelial cells, and PPARγ ligands inhibit inhibited endothelial cell proliferation. […] The present inventors therefore tested the effects of CDDO in endothelial cell assays. The formation of tube-like endothelial structures was performed using Matrigel®, a basement membrane matrix extracted from the Engelbreth-Holm Swarm mouse sarcoma cell line. Bone marrow endothelial cells with recombinant angiogenic cytokines were incubated in the presence or absence of CDDO, and formation of tube-like endothelial structures was assessed by direct observation using a inverted contrast-phase microscope. […] Vascular endothelial cells (HUVEC) were grown in EBM-2 or EGM-2 media (Clonetics) containing VEGF, EGF, bFGF and IGF-1. The proliferation of endothelial cells was assessed by inverted contrast-phase microscope after 24 hrs of CDDO exposure in the indicated concentrations. CDDO-Me. The formation of tube-like endothelial structures that are associated with angiogenesis was analyzed using a Matrigel system (Kubota et al., 1988). Capillary-like structure formation of bone marrow endothelium was inhibited by CDDO-Me. […] Thus, CDDO-Me also has anti-angiogenic effects.
# [2] = test system: Daudi cells; assay: cells
# Description: (§1) Suspension culture of leukemic cells. Leukemic cell lines were cultured at a density of 3.0×10^5 cells/mL, and AML mononuclear cells at 5×10^5 cells/mL in the presence or absence of indicated concentrations of CDDO-Me. Appropriate amounts of DMSO (final concentration<0.05%) was included as a control. For cytotoxicity studies, 1 μM ara-C was added to the cultures.
# (§2) CDDO-Me. […] Mechanism of growth inhibition was analyzed on cell cycle and apoptosis in HL-60 cells.
# [3] = test system: primary AML cells; assay: Monocytic differentiation (CD14) in primary AML; format: cell-based, human
# Description: (§3) Immunophenotyping. The PE-conjugated anti-CD11b, FITC-conjugated anti-CD14 monoclonal antibody (mAb) (Becton Dickinson) and PE-conjugated anti-CD95 mAb (PharMingen) were used at a 1/10 dilution.
# (§4) CDDO-Me. […] Effects of CDDO-Me were also tested on clonogenic AML cells.
# [4] = test system: CML-BC sample; assay: Colony formation of CML-BC sample; format: cell-based, human; conditions: CDDO 0.5 μM, CDDO-Me 0.1 μM
# [5] = test system: U937 cells; assay: Atlas Cancer cDNA array, differential gene expression; format: cell-based, human; conditions: 1 μM; CDDO 24 hrs, CDDO-Me 1 hour
# Description: The differential expression of a large number of genes involved in apoptosis, proliferation and signal transduction were analyzed utilizing the Atlas Cancer c-DNA array from Clontech (Palo Alto, Calif.). […] The downregulation of 17 genes (over two-fold) was seen, some of these genes were MAPKK5, STAT5A and B, DNA topoisomerase 2, VEGFR1 and VEGF. […] Differential expression of a large number of genes involved in apoptosis, proliferation and signal transduction was also performed for CDDO-Me. […] In preliminary studies, the inventors observed over two-fold downregulation of 23 genes: these include MAPK/ERK2, endothelin2, MLH1. Remarkably, decreased expression of VEGFR1, that potentially mediate pro-angiogenic properties of the leukemic cells, was observed (FIG. 33). […] The cDNA array data require conformation but may indicate what changes in gene expression contribute to the observed anti-leukemic effects of CDDO-Me.
# [6] = test system: U937 cells transduced with Bcl-2; assay: Cytotoxicity in Bcl-2 overexpressing cells; format: cell-based, human
# Excerpt: The inventors also tested if overexpression of the anti-apoptotic protein Bcl-2 protected leukemic cells from CDDO-induced cytotoxicity. For these experiments U937 cells transduced with Bcl-2 were used with empty-vector containing counterparts as controls.
# To study if the overexpression of Bcl-2 can protect leukemic cells from CDDO-Me-induced cytotoxicity the inventors used U937 cells transduced with Bcl-2 (Vrana et al., 1999) and their empty-vector containing counterparts. […] However, […] overexpressing Bcl-2 exerted almost complete protection from CDDO-Me killing as determined by annexin V-positivity, Phi-Phi-Lux and CMXRos staining. […] In contrast, in p53-negative HL-60 and HL-60-Dox cells Fas was only not induced but IETD-FMK could also not prevent CDDO-Me-induced cell death, indicating involvement of different mechanisms of apoptotic cell death in these cells (Owen-Schaub et al., 1994). […] Thus, induction of the FasL/Fas/caspase-8 pathway is not essential in the execution of CDDO-Me-induced cell death. Post-translational modifications of Bcl-2 are involved in the regulation of apoptosis by CDDO-Me. Thus, Bcl-2 phosphorylation is inhibited by CDDO-Me.
# [7] = test system: HL-60 cells; assay: Viable cell count of leukemic cells in suspension culture (Trypan blue); format: cell-based, human; conditions: for pIC50: HL-60
# Description: as §1
# CDDO. […] The percentage of proliferating cells were analyzed by FCM.
# as §2
# [8] = test system: AML progenitors; assay: AML blast colony assay; format: cell-based, human
# Description: AML blast colony assay. A previously described method was used to measure AML blast colony formation. Briefly, 1×10^5 T-cell-depleted, nonadherent, low-density bone marrow cells were plated in 0.8% methylcellulose in Iscove's modified Dulbecco's medium (IMDM; Gibco Laboratories, Grand Island, N.Y.) supplemented with 10% fetal bovine serum and 15 ng/mL recombinant human granulocyte-macrophage colony-stimulating factor (hGM-CSF). CDDO or CDDO-Me was added at the initiation of cultures at concentrations ranging from 0.05 to 0.5 μg/mL. AML blast colonies were evaluated under a microscope on day 7 of culture in duplicate dishes.
# (§5) The effect of CDDO on clonogenic AML cells were tested. […] (FIG. 7).
# as §4
# [9] = test system: normal CD34+ cells; assay: CFU-GM of normal CD34+ cells (CFU-GEMM assay); format: cell-based, human; conditions: for CFU-GM generated from normal CD34+ cells detected: n=3
# Description: CFU-Granulocyte-Erythroid-Macrophage-Megakaryocyte (CFU-GEMM) Assay. In three experiments, 2×10^5 CD34^+ cells isolated from normal bone marrow (n=1) or G-CSF-stimulated peripheral blood (n=2) were plated in 0.8% methylcellulose with IMDM, 1 U/mL human erythropoietin (Terry Fox Laboratories, Vancouver, Canada), and 50 ng/mL recombinant hGM-CSF. CDDO-Me was added at the initiation of cultures at concentrations ranging from 0.05 to 0.5 μg/mL.
# as §5, §4
# [10] = test system: HL-60 cells; assay: Differentiation by CD11b/CD14 flow cytometry; format: cell-based, human; conditions: for CD11b %: 7 days; for percentage of CD14 (+) live cells (FCM): no ligand
# Description: as §3
# Enhancement in cellular differentiation using combinations of CDDO with ATRA were tested. […] Cell differentiation was analyzed by flow cytometry (CD14/CD11b staining). […] These experiments were repeated. […]
# Finally, the inventors examined if CDDO-Me combined with ATRA would enhance differentiation. […] […] Next, combined treatment with CDDO-Me and RXR-specific ligand were tested for potentiation of anti-leukemic effects.
compound,measurement,setting,value
"CC1(C)CCC2(C(=O)O)CCC3(C)C(C(=O)C=C4C5(C)C=C(C#N)C(=O)C(C)(C)C5CCC43C)C2C1 (stereo not shown) [CDDO, 2-cyano-3,12-dioxoolen-1,9-dien-28-oic acid]",proliferation / structure formation of cytokine-stimulated vascular endothelial cells,[1],diminished the proliferation
same,Daudi cells alive,[2]; 1 μM,73.6%
same,viability at 2 µM,"[2]; Homo sapiens, Daudi, read-out: viable cells",25.3%
same,AML samples with induced monocytic differentiation (CD14),[3],3/11
same,inhibition at 0.5 µM,"[4]; Homo sapiens, read-out: inhibition of colonies in one CML-BC sample",> 50%
same,number of genes downregulated over two-fold,[5],17
same,number of genes upregulated,[5],7
same,protection by Bcl-2 overexpression (3-fold),[6],did not protect cells from CDDO-killing
same,pIC50,"[7]; Homo sapiens, 72 and 96 hours, read-out: concentration of CDDO that reduced cell numbers by 50%",9.00
same,pIC50,"[7]; Homo sapiens, 48 hours, read-out: concentration of CDDO that reduced cell numbers by 50%",8.00
same,colony formation of AML progenitors reduced,"[8]; 1 μM, n=6",58±4.6%
same,CFU-GM of normal CD34+ cells inhibited by,[9]; at this concentration (n=3),26.8±4.3%
same,concentration needed to exert similar effect (CD11b+ as 0.1 μM CDDO-Me),[10],1 µM
same,CD11b %,[10]; 0.1 μM (DMSO control 24.9),45.0%
same,CD11b %,[10]; 0.3 μM,75.9%
same,percentage of CD14 (+) live cells (FCM),[10]; CDDO 0.5 μM,36.7%
same,percentage of CD14 (+) live cells (FCM),[10]; CDDO 1 μM,80.4%
same,concentration at which monocytic differentiation was induced,[10]; HL-60 cells,0.5 to 1.0 µM
COC(=O)[C@]12CCC(C)(C)C[C@H]1[C@H]1C(=O)C=C3[C@@]4(C)C=C(C#N)C(=O)C(C)(C)[C@@H]4CC[C@@]3(C)[C@]1(C)CC2 [CDDO-Me],proliferation / structure formation of cytokine-stimulated vascular endothelial cells,[1],also inhibited
same,"cell number, % of DMSO-controls","[2]; 0.3 μM, 48 hrs",22.5%
same,AML samples with induced monocytic differentiation (CD14),[3],2/5
same,inhibition of colonies in one CML-BC sample,[4],> 50%
same,number of genes downregulated over two-fold,[5],23
same,number of genes upregulated,[5],Twenty-two
same,protection by Bcl-2 overexpression (3-fold),[6],did not protect cells from CDDO-Me-killing
same,viable cells recovered,"[7]; 0.5 μM, 48 hrs",essentially no viable cells
same,pIC50,[7]; read-out: IC50,6.40
same,surviving colonies,[8]; 0.1 μM,46.7%±6.6
same,surviving colonies,[8]; 0.3 μM,27.5%±6.8
same,surviving colonies,[8]; 0.5 μM,8.8%±3.8
same,CFU-GM generated from normal CD34+ cells detected,[9]; 0.1 μM,79±5.6%
same,CFU-GM generated from normal CD34+ cells detected,[9]; 0.5 μM,63.4±1.1%
same,CD11b+ cells,[10]; 0.1 μM,86.6%
same,CD11b+ cells,"[10]; 48 hrs, CDDO-Me 0.1 μM, ATRA 1 μM, alone or simultaneously (DMSO controls 40%)",67.4%

# From patent publication US7795305B2, “CDDO-compounds and combination therapies thereof” (Board of Regents, The University of Texas System, priority 2000, dated 2010)
